# Measured values published in publication PMC6977461 (Chemical Science, 2019).
# Biological target: T1, mouse GLP-1 receptor (Mus musculus, UniProt O35659)
# T1 construct: βTC6 cells which express GLP-1R endogenously; host or cells: βTC6 cells
# T1 sequence (O35659 22-463): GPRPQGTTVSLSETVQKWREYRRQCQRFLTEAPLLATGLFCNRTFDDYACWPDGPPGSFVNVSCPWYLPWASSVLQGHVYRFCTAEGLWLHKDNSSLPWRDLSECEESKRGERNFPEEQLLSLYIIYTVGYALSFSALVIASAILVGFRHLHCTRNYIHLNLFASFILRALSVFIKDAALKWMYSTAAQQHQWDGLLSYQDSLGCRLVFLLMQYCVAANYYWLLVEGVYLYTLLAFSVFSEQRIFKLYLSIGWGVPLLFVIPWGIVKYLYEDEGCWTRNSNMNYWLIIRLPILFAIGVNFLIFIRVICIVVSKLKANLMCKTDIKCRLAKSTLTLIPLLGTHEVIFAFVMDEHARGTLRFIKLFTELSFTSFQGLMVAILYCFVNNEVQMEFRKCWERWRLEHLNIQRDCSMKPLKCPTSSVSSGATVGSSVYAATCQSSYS
# Assay: cAMP production in βTC6 cells expressing GLP-1R endogenously (Method C2)
# Format: cell-based
# Conditions: for Potency (%), Table S1: from EC50 in βTC6 cAMP assay, footnote: compare to GLP-1-NH2 (2); for EC50: read-out: EC50 (GLP-1R potency), Table S1
# Method:  HEK-293T cells (Multispan inc., lot#.DC1267-062017) were suspended in cell culture media
# (DMEM 1X + GlutaMAX (Gibco 31966-021)) complemented with FBS 10% (Sigma Aldrich
#  βTC6 cells were suspended in HBSS buffer (Invitrogen) complemented with 20 mM HEPES (pH
# In vitro pharmacology on HEK-293T cells (EC50: Method C1)
# cells (Multispan inc., lot#.DC1267-062017) was determined by measuring their effects on cAMP
# production using the HTRF detection method (performed by UREkA SARL). The cells were distributed
# in 384-well microplates at a density of 1.0x10^4 cells/well. Stock solutions of the test compounds or the
# reference agonist were prepared at a concentration of 1 mM in DMSO. Then, compounds to be tested
# were diluted in cell culture media and transferred to the plate containing the cells to reach final assay
Compound,"Potency (%), Table S1 [%]",EC50 [µM]
CC[C@H](C)[C@H](NC(=O)[C@H](Cc1ccccc1)NC(=O)[C@H](CCC(=O)O)NC(=O)[C@H](CCCCN)NC(=O)[C@H](C)NC(=O)[C@H](C)NC(=O)[C@H](CCC(N)=O)NC(=O)CNC(=O)[C@H](CCC(=O)O)NC(=O)[C@H](CC(C)C)NC(=O)[C@H](Cc1ccc(O)cc1)NC(=O)[C@H](CO)NC(=O)[C@H](CO)NC(=O)[C@@H](NC(=O)[C@H](CC(=O)O)NC(=O)[C@H](CO)NC(=O)[C@@H](NC(=O)[C@H](Cc1ccccc1)NC(=O)[C@@H](NC(=O)CNC(=O)[C@H](CCC(=O)O)NC(=O)NC[C@H](CCCNC(=N)N)NC(=O)[C@@H](N)Cc1c[nH]cn1)[C@@H](C)O)[C@@H](C)O)C(C)C)C(=O)N[C@@H](C)C(=O)N[C@@H](Cc1c[nH]c2ccccc12)C(=O)N[C@@H](CC(C)C)C(=O)N[C@H](C(=O)N[C@@H](CCCCN)C(=O)NCC(=O)N[C@@H](CCCNC(=N)N)C(=O)NCC(N)=O)C(C)C [S2],< 0.01,> 10
"CC[C@H](C)[C@H](NC(=O)[C@H](Cc1ccccc1)NC(=O)[C@H](CCC(=O)O)NC(=O)[C@H](CCCCN)NC(=O)[C@H](C)NC(=O)[C@H](C)NC(=O)[C@H](CCC(N)=O)NC(=O)CNC(=O)[C@H](CCC(=O)O)NC(=O)[C@H](CC(C)C)NC(=O)[C@H](Cc1ccc(O)cc1)NC(=O)[C@H](CO)NC(=O)[C@H](CO)NC(=O)[C@@H](NC(=O)[C@H](CC(=O)O)NC(=O)[C@H](CO)NC(=O)[C@@H](NC(=O)[C@H](Cc1ccccc1)NC(=O)[C@@H](NC(=O)CNC(=O)[C@H](CCC(=O)O)NC(=O)CNC(=O)[C@@H](N)Cc1c[nH]cn1)[C@@H](C)O)[C@@H](C)O)C(C)C)C(=O)N[C@@H](C)C(=O)N[C@@H](Cc1c[nH]c2ccccc12)C(=O)N[C@@H](CC(C)C)C(=O)N[C@H](C(=O)N[C@@H](CCCCN)C(=O)NCC(=O)N[C@@H](CCCNC(=N)N)C(=O)NCC(N)=O)C(C)C [S12, reference compound]",42,
CC[C@H](C)[C@H](NC(=O)[C@H](Cc1ccccc1)NC(=O)[C@H](CCC(=O)O)NC(=O)[C@H](CCCCN)NC(=O)[C@H](C)NC(=O)[C@H](C)NC(=O)[C@H](CCC(N)=O)NC(=O)CNC(=O)[C@H](CCC(=O)O)NC(=O)[C@H](CC(C)C)NC(=O)[C@H](Cc1ccc(O)cc1)NC(=O)[C@H](CO)NC(=O)[C@H](CO)NC(=O)[C@@H](NC(=O)[C@H](CC(=O)O)NC(=O)[C@H](CO)NC(=O)[C@@H](NC(=O)[C@H](Cc1ccccc1)NC(=O)[C@@H](NC(=O)CNC(=O)[C@H](CCC(=O)O)NC(=O)NC[C@H](CC(C)C)NC(=O)[C@@H](N)Cc1c[nH]cn1)[C@@H](C)O)[C@@H](C)O)C(C)C)C(=O)N[C@@H](C)C(=O)N[C@@H](Cc1c[nH]c2ccccc12)C(=O)N[C@@H](CC(C)C)C(=O)N[C@H](C(=O)N[C@@H](CCCCN)C(=O)NCC(=O)N[C@@H](CCCNC(=N)N)C(=O)NCC(N)=O)C(C)C [S7],< 0.01,> 10
CC[C@H](C)[C@H](NC(=O)[C@H](Cc1ccccc1)NC(=O)[C@H](CCC(=O)O)NC(=O)[C@H](CCCCN)NC(=O)[C@H](C)NC(=O)[C@H](C)NC(=O)[C@H](CCC(N)=O)NC(=O)CNC(=O)[C@H](CCC(=O)O)NC(=O)[C@H](CC(C)C)NC(=O)[C@H](Cc1ccc(O)cc1)NC(=O)[C@H](CO)NC(=O)[C@H](CO)NC(=O)[C@@H](NC(=O)[C@H](CC(=O)O)NC(=O)[C@H](CO)NC(=O)[C@@H](NC(=O)[C@H](Cc1ccccc1)NC(=O)[C@@H](NC(=O)CNC(=O)[C@H](CCC(=O)O)NC(=O)NC[C@H](CCC(N)=O)NC(=O)[C@@H](N)Cc1c[nH]cn1)[C@@H](C)O)[C@@H](C)O)C(C)C)C(=O)N[C@@H](C)C(=O)N[C@@H](Cc1c[nH]c2ccccc12)C(=O)N[C@@H](CC(C)C)C(=O)N[C@H](C(=O)N[C@@H](CCCCN)C(=O)NCC(=O)N[C@@H](CCCNC(=N)N)C(=O)NCC(N)=O)C(C)C [S4],< 0.01,> 10
CC[C@H](C)[C@H](NC(=O)[C@H](Cc1ccccc1)NC(=O)[C@H](CCC(=O)O)NC(=O)[C@H](CCCCN)NC(=O)[C@H](C)NC(=O)[C@H](C)NC(=O)[C@H](CCC(N)=O)NC(=O)CNC(=O)[C@H](CCC(=O)O)NC(=O)[C@H](CC(C)C)NC(=O)[C@H](Cc1ccc(O)cc1)NC(=O)[C@H](CO)NC(=O)[C@H](CO)NC(=O)[C@@H](NC(=O)[C@H](CC(=O)O)NC(=O)[C@H](CO)NC(=O)[C@@H](NC(=O)[C@H](Cc1ccccc1)NC(=O)[C@@H](NC(=O)CNC(=O)[C@H](CCC(=O)O)NC(=O)NC[C@@H](NC(=O)[C@@H](N)Cc1c[nH]cn1)[C@@H](C)O)[C@@H](C)O)[C@@H](C)O)C(C)C)C(=O)N[C@@H](C)C(=O)N[C@@H](Cc1c[nH]c2ccccc12)C(=O)N[C@@H](CC(C)C)C(=O)N[C@H](C(=O)N[C@@H](CCCCN)C(=O)NCC(=O)N[C@@H](CCCNC(=N)N)C(=O)NCC(N)=O)C(C)C [S10],3,0.0033
CC[C@H](C)[C@H](NC(=O)[C@H](Cc1ccccc1)NC(=O)[C@H](CCC(=O)O)NC(=O)[C@H](CCCCN)NC(=O)[C@H](C)NC(=O)[C@H](C)NC(=O)[C@H](CCC(N)=O)NC(=O)CNC(=O)[C@H](CCC(=O)O)NC(=O)[C@H](CC(C)C)NC(=O)[C@H](Cc1ccc(O)cc1)NC(=O)[C@H](CO)NC(=O)[C@H](CO)NC(=O)[C@@H](NC(=O)[C@H](CC(=O)O)NC(=O)[C@H](CO)NC(=O)[C@@H](NC(=O)[C@H](Cc1ccccc1)NC(=O)[C@@H](NC(=O)CNC(=O)[C@H](CCC(=O)O)NC(=O)NC[C@H](CCCCN)NC(=O)[C@@H](N)Cc1c[nH]cn1)[C@@H](C)O)[C@@H](C)O)C(C)C)C(=O)N[C@@H](C)C(=O)N[C@@H](Cc1c[nH]c2ccccc12)C(=O)N[C@@H](CC(C)C)C(=O)N[C@H](C(=O)N[C@@H](CCCCN)C(=O)NCC(=O)N[C@@H](CCCNC(=N)N)C(=O)NCC(N)=O)C(C)C [S8],< 0.01,> 10
CC[C@H](C)[C@H](NC(=O)[C@H](Cc1ccccc1)NC(=O)[C@H](CCC(=O)O)NC(=O)[C@H](CCCCN)NC(=O)[C@H](C)NC(=O)[C@H](C)NC(=O)[C@H](CCC(N)=O)NC(=O)CNC(=O)[C@H](CCC(=O)O)NC(=O)[C@H](CC(C)C)NC(=O)[C@H](Cc1ccc(O)cc1)NC(=O)[C@H](CO)NC(=O)[C@H](CO)NC(=O)[C@@H](NC(=O)[C@H](CC(=O)O)NC(=O)[C@H](CO)NC(=O)[C@@H](NC(=O)[C@H](Cc1ccccc1)NC(=O)[C@@H](NC(=O)CNC(=O)[C@H](CCC(=O)O)NC(=O)NC[C@@H](NC(=O)[C@@H](N)Cc1c[nH]cn1)[C@@H](C)CC)[C@@H](C)O)[C@@H](C)O)C(C)C)C(=O)N[C@@H](C)C(=O)N[C@@H](Cc1c[nH]c2ccccc12)C(=O)N[C@@H](CC(C)C)C(=O)N[C@H](C(=O)N[C@@H](CCCCN)C(=O)NCC(=O)N[C@@H](CCCNC(=N)N)C(=O)NCC(N)=O)C(C)C [S6],< 0.01,> 10
CC[C@H](C)[C@H](NC(=O)[C@H](Cc1ccccc1)NC(=O)[C@H](CCC(=O)O)NC(=O)[C@H](CCCCN)NC(=O)[C@H](C)NC(=O)[C@H](C)NC(=O)[C@H](CCC(N)=O)NC(=O)CNC(=O)[C@H](CCC(=O)O)NC(=O)[C@H](CC(C)C)NC(=O)[C@H](Cc1ccc(O)cc1)NC(=O)[C@H](CO)NC(=O)[C@H](CO)NC(=O)[C@@H](NC(=O)[C@H](CC(=O)O)NC(=O)[C@H](CO)NC(=O)[C@@H](NC(=O)[C@H](Cc1ccccc1)NC(=O)[C@@H](NC(=O)CNC(=O)[C@H](CCC(=O)O)NC(=O)NC[C@H](CCC(=O)O)NC(=O)[C@@H](N)Cc1c[nH]cn1)[C@@H](C)O)[C@@H](C)O)C(C)C)C(=O)N[C@@H](C)C(=O)N[C@@H](Cc1c[nH]c2ccccc12)C(=O)N[C@@H](CC(C)C)C(=O)N[C@H](C(=O)N[C@@H](CCCCN)C(=O)NCC(=O)N[C@@H](CCCNC(=N)N)C(=O)NCC(N)=O)C(C)C [S5],< 0.01,> 10
CC[C@H](C)[C@H](NC(=O)[C@H](Cc1ccccc1)NC(=O)[C@H](CCC(=O)O)NC(=O)[C@H](CCCCN)NC(=O)[C@H](C)NC(=O)[C@H](C)NC(=O)[C@H](CCC(N)=O)NC(=O)CNC(=O)[C@H](CCC(=O)O)NC(=O)[C@H](CC(C)C)NC(=O)[C@H](Cc1ccc(O)cc1)NC(=O)[C@H](CO)NC(=O)[C@H](CO)NC(=O)[C@@H](NC(=O)[C@H](CC(=O)O)NC(=O)[C@H](CO)NC(=O)[C@@H](NC(=O)[C@H](Cc1ccccc1)NC(=O)[C@@H](NC(=O)CNC(=O)[C@H](CCC(=O)O)NC(=O)NC[C@H](Cc1ccccc1)NC(=O)[C@@H](N)Cc1c[nH]cn1)[C@@H](C)O)[C@@H](C)O)C(C)C)C(=O)N[C@@H](C)C(=O)N[C@@H](Cc1c[nH]c2ccccc12)C(=O)N[C@@H](CC(C)C)C(=O)N[C@H](C(=O)N[C@@H](CCCCN)C(=O)NCC(=O)N[C@@H](CCCNC(=N)N)C(=O)NCC(N)=O)C(C)C [S9],21,0.0005
CC[C@H](C)[C@H](NC(=O)[C@H](Cc1ccccc1)NC(=O)[C@H](CCC(=O)O)NC(=O)[C@H](CCCCN)NC(=O)[C@H](C)NC(=O)[C@H](C)NC(=O)[C@H](CCC(N)=O)NC(=O)CNC(=O)[C@H](CCC(=O)O)NC(=O)[C@H](CC(C)C)NC(=O)[C@H](Cc1ccc(O)cc1)NC(=O)[C@H](CO)NC(=O)[C@H](CO)NC(=O)[C@@H](NC(=O)[C@H](CC(=O)O)NC(=O)[C@H](CO)NC(=O)[C@@H](NC(=O)[C@H](Cc1ccccc1)NC(=O)[C@@H](NC(=O)CNC(=O)[C@H](CCC(=O)O)NC(=O)NC[C@H](CO)NC(=O)[C@@H](N)Cc1c[nH]cn1)[C@@H](C)O)[C@@H](C)O)C(C)C)C(=O)N[C@@H](C)C(=O)N[C@@H](Cc1c[nH]c2ccccc12)C(=O)N[C@@H](CC(C)C)C(=O)N[C@H](C(=O)N[C@@H](CCCCN)C(=O)NCC(=O)N[C@@H](CCCNC(=N)N)C(=O)NCC(N)=O)C(C)C [S1],8,
